Tests used:
[1] = biological target: T1, Serotonin 3 (5-HT3) receptor (Rattus norvegicus, UniProt P35563+Q9JJ16); assay: Displacement of [3H]GR65630 from 5HT3 receptor in brain cortex from Wistar rat; format: tissue-based
T1 sequence (P35563 whole entry): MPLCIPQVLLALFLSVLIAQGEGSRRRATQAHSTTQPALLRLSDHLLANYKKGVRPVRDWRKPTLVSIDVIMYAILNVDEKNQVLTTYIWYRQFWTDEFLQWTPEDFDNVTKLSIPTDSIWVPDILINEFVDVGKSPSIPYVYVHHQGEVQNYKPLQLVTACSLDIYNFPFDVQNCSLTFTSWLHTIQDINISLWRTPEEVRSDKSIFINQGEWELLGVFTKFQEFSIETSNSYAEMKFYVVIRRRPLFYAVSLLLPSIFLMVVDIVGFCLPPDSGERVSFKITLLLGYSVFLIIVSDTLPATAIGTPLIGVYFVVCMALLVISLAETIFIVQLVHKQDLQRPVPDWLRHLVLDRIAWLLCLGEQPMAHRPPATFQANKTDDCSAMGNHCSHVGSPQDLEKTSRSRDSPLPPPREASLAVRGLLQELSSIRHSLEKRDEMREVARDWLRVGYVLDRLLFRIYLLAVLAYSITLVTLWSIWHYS
T1 sequence (Q9JJ16 whole entry): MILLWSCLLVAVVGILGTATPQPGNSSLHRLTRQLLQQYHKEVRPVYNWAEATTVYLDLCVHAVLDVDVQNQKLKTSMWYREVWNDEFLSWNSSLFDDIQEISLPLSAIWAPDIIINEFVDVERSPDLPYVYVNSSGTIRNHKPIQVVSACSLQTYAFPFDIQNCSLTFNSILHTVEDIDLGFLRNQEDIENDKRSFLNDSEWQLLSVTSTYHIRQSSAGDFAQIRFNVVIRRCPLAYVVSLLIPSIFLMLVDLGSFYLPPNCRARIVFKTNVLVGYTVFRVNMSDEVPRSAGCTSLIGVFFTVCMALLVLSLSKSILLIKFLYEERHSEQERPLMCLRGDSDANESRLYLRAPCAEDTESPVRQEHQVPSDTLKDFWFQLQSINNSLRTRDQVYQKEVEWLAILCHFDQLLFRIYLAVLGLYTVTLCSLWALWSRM

[2] = biological target: T2, 5-hydroxytryptamine receptor 4 (Rattus norvegicus, UniProt Q62758); assay: Antagonism at 5HT4 receptor in rat tunica muscularis mucosa; format: functional, tissue-based; settings: read-out: pA2 (converted)
[3] = biological target: T3, Adrenergic receptor alpha-1 (Homo sapiens, UniProt P35348+P25100+P35368); assay: Binding affinity to adrenergic alpha-1 receptor; format: protein assay
T3 sequence (P35348 whole entry): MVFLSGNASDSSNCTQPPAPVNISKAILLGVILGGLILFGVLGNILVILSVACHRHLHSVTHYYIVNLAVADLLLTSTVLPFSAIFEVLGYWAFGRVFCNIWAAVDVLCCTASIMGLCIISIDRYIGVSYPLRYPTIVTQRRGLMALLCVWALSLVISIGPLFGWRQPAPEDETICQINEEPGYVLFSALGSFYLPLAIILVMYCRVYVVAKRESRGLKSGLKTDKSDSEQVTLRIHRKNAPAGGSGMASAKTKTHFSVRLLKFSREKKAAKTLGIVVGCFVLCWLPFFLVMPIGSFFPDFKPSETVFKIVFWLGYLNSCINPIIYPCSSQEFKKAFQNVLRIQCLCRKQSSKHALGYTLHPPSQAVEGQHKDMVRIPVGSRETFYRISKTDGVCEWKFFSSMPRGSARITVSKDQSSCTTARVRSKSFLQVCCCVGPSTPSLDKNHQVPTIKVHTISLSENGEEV
T3 sequence (P25100 whole entry): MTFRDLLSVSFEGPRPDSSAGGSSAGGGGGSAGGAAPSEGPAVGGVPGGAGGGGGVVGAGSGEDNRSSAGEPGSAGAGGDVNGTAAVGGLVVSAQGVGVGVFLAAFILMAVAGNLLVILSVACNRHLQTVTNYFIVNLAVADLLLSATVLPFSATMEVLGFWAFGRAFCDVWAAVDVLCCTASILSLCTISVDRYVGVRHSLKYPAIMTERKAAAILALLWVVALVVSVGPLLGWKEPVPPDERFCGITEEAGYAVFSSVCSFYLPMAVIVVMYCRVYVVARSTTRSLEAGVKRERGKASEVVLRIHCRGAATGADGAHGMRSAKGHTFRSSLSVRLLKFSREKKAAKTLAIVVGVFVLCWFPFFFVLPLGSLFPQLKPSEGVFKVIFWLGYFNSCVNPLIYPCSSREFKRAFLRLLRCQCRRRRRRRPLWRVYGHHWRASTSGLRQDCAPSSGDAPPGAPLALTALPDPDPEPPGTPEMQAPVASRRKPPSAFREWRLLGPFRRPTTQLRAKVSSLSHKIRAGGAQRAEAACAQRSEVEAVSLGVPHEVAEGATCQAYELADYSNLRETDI
T3 sequence (P35368 whole entry): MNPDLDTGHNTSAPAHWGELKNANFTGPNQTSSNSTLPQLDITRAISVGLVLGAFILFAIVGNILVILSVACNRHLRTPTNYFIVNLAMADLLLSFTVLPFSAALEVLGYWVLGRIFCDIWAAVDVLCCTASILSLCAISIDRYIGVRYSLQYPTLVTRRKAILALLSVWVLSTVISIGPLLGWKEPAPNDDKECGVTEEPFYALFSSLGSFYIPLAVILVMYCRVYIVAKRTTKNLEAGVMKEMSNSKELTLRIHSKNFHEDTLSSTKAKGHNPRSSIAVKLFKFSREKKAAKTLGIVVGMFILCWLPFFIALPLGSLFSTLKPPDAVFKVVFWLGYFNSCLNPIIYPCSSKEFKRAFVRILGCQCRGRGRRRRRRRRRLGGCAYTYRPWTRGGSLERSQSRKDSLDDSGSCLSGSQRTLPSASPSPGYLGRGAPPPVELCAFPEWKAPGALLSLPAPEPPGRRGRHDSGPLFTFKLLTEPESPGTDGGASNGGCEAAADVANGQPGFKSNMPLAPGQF

[4] = biological target: T2, 5-hydroxytryptamine receptor 4; assay: Agonism at 5HT4 receptor in rat tunica muscularis mucosa; format: functional
Salmonella typhi [5] = assay: Mutagenic activity in a GLP study using Salmonella Typhimurium TA98 in presence of S9 fraction at 7.2-3600 ug/plate; format: toxicity, organism-based; settings: salmonella enterica subsp. enterica […]
Salmonella typhi [6] = assay: Mutagenic activity in a GLP study using Salmonella Typhimurium TA1538 in presence of S9 fraction at 7.2-3600 ug/plate; format: toxicity, organism-based; settings: salmonella enterica subsp. enterica […]
[7] = biological target: T4, Serotonin 3 receptor (5HT3) (Mus musculus) (UniProt Q9JHJ5+P23979); assay: Antagonism at 5HT3 receptor in mice by von Bezold-Jarisch reflex inhibition at 3 mg/kg, ip; format: functional, organism-based; design: dose 3 mg/kg
Salmonella typhi [8] = assay: Mutagenic activity in a GLP study using Salmonella Typhimurium TA97 in presence of S9 fraction at 7.2-3600 ug/plate; format: toxicity, organism-based; settings: salmonella enterica subsp. enterica […]
Canis familiaris [9] = assay: Contractile response of the antrum in iv dosed fasted dog; format: functional; settings: Canis lupus familiaris
Canis familiaris [10] = assay: Effect on solid gastric emptying in iv dosed dog; format: functional; settings: Canis lupus familiaris, Stomach
[11] = biological target: T4, Serotonin 3 receptor (5HT3) (Mus musculus); assay: Antagonism at 5HT3 receptor in mice by von Bezold-Jarisch reflex inhibition at 10 mg/kg, ip; format: functional, organism-based; design: dose 10 mg/kg
Salmonella typhi [12] = assay: Mutagenic activity in a GLP study using Salmonella Typhimurium TA100 in presence of S9 fraction at 7.2-3600 ug/plate; format: toxicity, organism-based; settings: salmonella enterica subsp. enterica […]

T2 sequence (Q62758 whole entry): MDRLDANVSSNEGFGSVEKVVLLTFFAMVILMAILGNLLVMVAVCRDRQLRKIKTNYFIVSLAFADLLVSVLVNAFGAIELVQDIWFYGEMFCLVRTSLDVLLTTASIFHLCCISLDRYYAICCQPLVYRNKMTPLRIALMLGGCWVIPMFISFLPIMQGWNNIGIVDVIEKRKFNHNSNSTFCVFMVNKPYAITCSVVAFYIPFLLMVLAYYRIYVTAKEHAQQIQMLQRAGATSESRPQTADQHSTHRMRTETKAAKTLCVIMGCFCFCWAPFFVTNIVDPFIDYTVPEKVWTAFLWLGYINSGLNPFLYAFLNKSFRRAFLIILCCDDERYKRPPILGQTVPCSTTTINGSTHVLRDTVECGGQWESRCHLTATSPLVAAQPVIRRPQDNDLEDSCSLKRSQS
T4 sequence (P23979 whole entry, looked up): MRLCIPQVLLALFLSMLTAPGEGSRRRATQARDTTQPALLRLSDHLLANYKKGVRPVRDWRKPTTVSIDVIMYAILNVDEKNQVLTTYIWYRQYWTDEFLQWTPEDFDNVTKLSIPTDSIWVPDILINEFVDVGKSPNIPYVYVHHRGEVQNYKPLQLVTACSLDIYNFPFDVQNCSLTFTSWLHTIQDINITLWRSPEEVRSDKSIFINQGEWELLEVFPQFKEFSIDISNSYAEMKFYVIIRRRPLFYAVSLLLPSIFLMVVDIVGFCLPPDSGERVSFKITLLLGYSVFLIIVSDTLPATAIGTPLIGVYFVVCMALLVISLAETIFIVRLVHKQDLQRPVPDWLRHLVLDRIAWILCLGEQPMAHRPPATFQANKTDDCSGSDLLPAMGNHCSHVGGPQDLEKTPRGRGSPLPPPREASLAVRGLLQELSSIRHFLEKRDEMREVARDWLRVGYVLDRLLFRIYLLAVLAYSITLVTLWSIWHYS
T4 sequence (Q9JHJ5 whole entry, looked up): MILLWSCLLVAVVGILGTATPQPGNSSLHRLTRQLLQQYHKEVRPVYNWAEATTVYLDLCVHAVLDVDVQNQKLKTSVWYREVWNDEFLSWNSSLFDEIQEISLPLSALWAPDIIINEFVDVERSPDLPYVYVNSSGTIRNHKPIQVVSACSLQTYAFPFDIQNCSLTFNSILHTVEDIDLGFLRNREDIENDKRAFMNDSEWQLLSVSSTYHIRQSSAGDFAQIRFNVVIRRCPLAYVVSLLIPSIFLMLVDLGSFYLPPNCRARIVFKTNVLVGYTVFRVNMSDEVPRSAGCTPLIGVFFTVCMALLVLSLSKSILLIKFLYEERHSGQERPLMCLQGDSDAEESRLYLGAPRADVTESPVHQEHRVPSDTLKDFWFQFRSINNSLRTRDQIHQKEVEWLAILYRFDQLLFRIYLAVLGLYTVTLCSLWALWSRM

SMILES	Ki [1]	Kb [2]	IC50 [3]	EC50 [4]	other results
O=C(OC[C@@H]1CCN2CCC[C@@H]12)c1c[nH]c2ccccc12	5 nM	1.17 nM	> 10000 nM	–	–
Cn1nc(C(=O)OC[C@@H]2CCN3CCC[C@@H]23)c2ccccc21 (single isomer, unassigned)	20 nM	2.75 nM	> 10000 nM	–	–
O=C(OC[C@@H]1CCN2CCC[C@@H]12)c1[nH]nc2ccccc12 (single isomer, unassigned)	135 nM	3.31 nM	> 10000 nM	–	–
COc1cc(N)c(Cl)cc1C(=O)NC[C@@H]1CCN2CCC[C@@H]12	–	–	> 10000 nM	16.5 nM	Activity (Salmonella typhi [5]): Active; Activity (Salmonella typhi [6]): Active; inhibition [7]: 57%; Activity (Salmonella typhi [8]): Active; ED50 (Canis familiaris [9]): 10 µg/kg; ED50 (Canis familiaris [10]): 1 µg/kg; inhibition [11]: 87%; Activity (Salmonella typhi [12]): Active
COc1cc(N)c(Cl)cc1C(=O)N[C@@H]1C2CC3CN(C2)CC31 (stereo not given in full)	1.2 nM	–	> 10000 nM	–	–
O=C(NC[C@@H]1CCN2CCC[C@@H]12)c1cc(Cl)cn2ccnc12	259 nM	7.41 nM	> 10000 nM	> 10000 nM	–

Source: ChEMBL document CHEMBL1149398, “Pyrrolizidine esters and amides as 5-HT4 receptor agonists and antagonists” (J Med Chem, 2006)
